Tests used:
Human C5 = molecular target: T1, Human C5 (Homo sapiens, UniProt P01031); assay: Surface plasmon resonance (SPR), compounds on immobilized human C5 (Example 2, Table 5); type: binding; details: lowest value where a range of compound concentrations were analyzed
T1 construct: purchased Complement Technology
Procedure: Surface plasmon resonance (SPR) technology was used to evaluate affinity, specificity, and kinetics of interactions between compounds and complement protein C5 in real time without the need for labeling.
SensiQ FE SPR system (SensiQ Technologies, Oklahoma City, Okla.) was used to provide sensitive and accurate detection of binding of small molecules to the very large C5 protein (MW=195,000 Da). The chip was prepared by preconditioning the sensor according to the protocol of the SensiQ FE using 10 mM HCl, 50 mM NAOH and 0.1% SDS. The sensor chip was activated by using a mixture of fresh EDAC (1-ethyl-3-(-3-dimethylaminopropyl) carbodiimide) (Sigma Co., St. Louis, Mo.) and NHS (N-hydroxy succinimide) (Sigma Co., St. Louis, Mo.). Human C5 was surface immobilized to a Pioneer Biosensor chip via random amine coupling (>12,000 RU) which makes use of the N-terminus and ε-amino groups of lysine residues of the protein ligand. Immobilization was done by injecting 30-40 μg/ml C5 in 10 mM NaAc pH 4.5 onto designated channels at a rate of 10 μL/minute for 12 minutes, targeting RL>12000 RU for small molecules.
Compounds were diluted in DMSO in a format of 100-fold final concentration and 3-fold serial dilution (5 or 6 dilutions). The 100-fold compounds were transferred to one-fold DMSO-free assay buffer in the 96-well test plate. The compound solution was injected at a rate of 60 μL/minute for 30-60 seconds, followed by 60-90 seconds dissociation time, buffer flushing and/or priming. Blank solution (1% DMSO assay buffer) was run for every 6 injections of compounds. Double reference by subtracting both blank channel and reference channel was applied for data processing. Titration of C5 binding compounds to the C5-immobilized biosensor chip surface led to interactions between C5 and potential binders, and the resulting changes of surface refractive index were sensitively measured by the system.
SPR data were analyzed with the managing software provided by SensiQ and equilibrium dissociation constant (KD) values were determined for each compound. Where a range of compound concentrations were analyzed, the lowest value obtained is presented.

purified human C5 = purified human C5 (Homo sapiens, UniProt P01031); assay: Red blood cell hemolysis assay, optical, absorbance 412 nm (Example 3, Table 6); type: cell-based; details: antibody-sensitized sheep erythrocytes, 1.5% human C5 depleted sera, 0.5 nM human C5; average where replicates
purified human C5, sequence (P01031 19-1676): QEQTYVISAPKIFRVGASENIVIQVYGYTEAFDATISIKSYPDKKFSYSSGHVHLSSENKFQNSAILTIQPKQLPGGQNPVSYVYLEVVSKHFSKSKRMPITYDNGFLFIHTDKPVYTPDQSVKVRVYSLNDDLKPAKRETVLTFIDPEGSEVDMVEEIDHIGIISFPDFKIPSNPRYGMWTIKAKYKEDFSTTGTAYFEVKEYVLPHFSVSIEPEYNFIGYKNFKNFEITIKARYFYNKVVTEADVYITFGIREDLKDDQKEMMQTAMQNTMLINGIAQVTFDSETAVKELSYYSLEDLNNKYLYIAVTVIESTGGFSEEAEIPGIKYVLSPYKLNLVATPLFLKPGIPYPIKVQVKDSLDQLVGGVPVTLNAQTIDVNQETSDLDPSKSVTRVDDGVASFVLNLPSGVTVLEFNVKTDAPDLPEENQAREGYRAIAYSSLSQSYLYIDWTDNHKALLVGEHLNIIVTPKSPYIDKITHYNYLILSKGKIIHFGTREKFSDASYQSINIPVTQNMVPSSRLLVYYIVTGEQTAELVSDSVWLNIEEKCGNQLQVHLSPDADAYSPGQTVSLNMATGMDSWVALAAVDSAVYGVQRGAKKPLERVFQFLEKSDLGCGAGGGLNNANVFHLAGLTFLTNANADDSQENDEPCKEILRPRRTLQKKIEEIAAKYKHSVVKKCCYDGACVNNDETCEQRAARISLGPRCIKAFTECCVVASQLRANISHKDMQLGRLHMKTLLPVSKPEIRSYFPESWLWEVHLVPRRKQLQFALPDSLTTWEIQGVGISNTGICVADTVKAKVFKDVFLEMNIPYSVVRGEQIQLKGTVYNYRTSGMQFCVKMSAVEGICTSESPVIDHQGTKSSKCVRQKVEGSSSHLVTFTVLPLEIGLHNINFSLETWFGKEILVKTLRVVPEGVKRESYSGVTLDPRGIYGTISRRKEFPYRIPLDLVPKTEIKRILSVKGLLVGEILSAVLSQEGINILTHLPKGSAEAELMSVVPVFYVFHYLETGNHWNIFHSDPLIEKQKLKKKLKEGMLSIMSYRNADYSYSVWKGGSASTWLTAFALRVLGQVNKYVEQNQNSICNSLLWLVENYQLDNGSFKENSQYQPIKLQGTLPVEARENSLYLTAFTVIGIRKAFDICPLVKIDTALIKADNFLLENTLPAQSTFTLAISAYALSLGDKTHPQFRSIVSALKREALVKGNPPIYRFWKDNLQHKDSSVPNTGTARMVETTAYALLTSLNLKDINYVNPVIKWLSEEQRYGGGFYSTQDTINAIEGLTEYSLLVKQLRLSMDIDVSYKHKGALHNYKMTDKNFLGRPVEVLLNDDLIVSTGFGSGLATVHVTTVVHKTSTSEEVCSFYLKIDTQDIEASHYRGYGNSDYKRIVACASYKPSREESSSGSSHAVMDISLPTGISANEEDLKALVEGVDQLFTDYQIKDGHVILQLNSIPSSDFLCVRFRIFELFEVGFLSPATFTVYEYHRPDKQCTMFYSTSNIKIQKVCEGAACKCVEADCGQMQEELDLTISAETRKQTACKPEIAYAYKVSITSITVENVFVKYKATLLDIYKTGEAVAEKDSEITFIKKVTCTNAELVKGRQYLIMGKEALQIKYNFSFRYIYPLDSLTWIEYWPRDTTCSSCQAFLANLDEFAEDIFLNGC

T1 sequence (P01031 19-1676): as above

Structure (SMILES)	Kd (Human C5)	IC50 (purified human C5)
COc1ccc(NC(=O)N[C@@H](C)c2ccccc2)cc1OCCCC(C)C [SM0009]	647 nM	198 nM
COc1ccc(NC(=O)N[C@@H](CO)c2ccccc2)cc1OCCCCC(F)(F)F [SM0025]	620 nM	675 nM
COc1ccc(NC(=O)NCc2ccncc2)cc1OCCCC(C)C [SM0031]	2700 nM	983 nM
C=CCCOc1cc(NC(=O)N[C@@H](CO)c2ccccc2)ccc1OC [SM0034]	1400 nM	1100 nM
COc1ccc(NC(=O)NC(CO)c2ccccc2C)cc1OCCCC(C)C (centres unmarked) [SM0036]	4300 nM	1240 nM
COc1ccc(NC(=O)NC(C)c2cccnc2)cc1OCCCC(C)C (centres unmarked) [SM0037]	628 nM	1320 nM
COc1ccc(NC(=O)N[C@@H](CO)c2ccccc2)cc1OCC(C)CC(C)C (some centres unmarked) [SM0038]	800 nM	1480 nM
COc1ncc(NC(=O)N[C@@H](CO)c2ccccc2)cc1OCCCC(C)C [SM0042]	6400 nM	2130 nM
COc1ccc(NC(=O)NCc2ccc(CN(C)C)cc2)cc1OCCCC(C)C [SM0043]	1930 nM	2140 nM
COc1ccc(NC(=O)NCc2ccccn2)cc1OCCCC(C)C [SM0045]	2800 nM	2230 nM
COc1ccc(NC(=O)NCc2ccncc2)cc1C#CCCC(C)C [SM0046]	8600 nM	2240 nM
COc1cccc(CNC(=O)Nc2ccc(OC)c(OCCCC(C)C)c2)c1 [SM0047]	830 nM	2270 nM
COc1ccc(NC(=O)NCc2ccc(S(N)(=O)=O)cc2)cc1OCCCC(C)C [SM0048]	7200 nM	2540 nM
COc1ccc(NC(=O)NCc2cccnc2)cc1OCCCC(C)C [SM0049]	4100 nM	2790 nM
COc1ccc(NC(=O)N[C@@H](CO)c2ccccc2)cc1OCCCCl [SM0051]	–	3060 nM
COc1ccc(NC(=O)NCc2cccs2)cc1OCCCC(C)C [SM0052]	564 nM	3100 nM
COc1ccc(NC(=O)N[C@@H](CO)c2ccccc2)cc1OCCOC1CCC1 [SM0053]	3350 nM	3380 nM

Structure (SMILES)	Kd (Human C5)	IC50 (purified human C5)
COc1ccc(NC(=O)NC(CO)c2cnn(C)c2)cc1OCCCC(C)C (centres unmarked) [SM0055]	–	3450 nM
COc1ccc(NC(=O)N(CCO)c2ccccc2)cc1OCCCC(C)C [SM0057]	5300 nM	4050 nM
COc1ccc(NC(=O)NCc2ccccc2F)cc1OCCCC(C)C [SM0058]	500 nM	4090 nM
COc1ccc(NC(=O)N[C@@H](CO)c2ccccc2)cc1Br [SM0060]	–	4470 nM
C=C(NC(=O)Nc1ccc(OC)c(OCCCC(C)C)c1)c1ccccc1 [SM0061]	3900 nM	4990 nM
COc1ccc(NC(=O)N[C@@H](COC(C)=O)c2ccccc2)cc1OCCCC(C)C [SM0062]	2000 nM	5650 nM
COc1ccc(NC(=O)NCc2cccc(CN(C)C)c2)cc1OCCCC(C)C [SM0063]	6370 nM	6140 nM
COc1ccc(NC(=O)NC(CCO)c2ccccc2)cc1OCCCC(C)C (centres unmarked) [SM0064]	6610 nM	6450 nM
COc1ccc(NC(=O)NCc2ccc3nccn3c2)cc1OCCCC(C)C [SM0065]	1600 nM	6670 nM
COc1ccc(NC(=O)N[C@@H](COC(N)=O)c2ccccc2)cc1OCCCC(C)C [SM0068, (R)-2-(3-(4-methoxy-3-((4-methylpentyl)oxyureido)-2-phenylethyl carbamate]	2600 nM	7360 nM
CC(C)CCCOc1cccc(NC(=O)N[C@@H](CO)c2ccccc2)c1 [SM0070, 1-[(1R)-2-hydroxy-1-phenyl-ethyl]-3-(3-isohexyloxyphenyl)urea]	4800 nM	8600 nM
COc1ccc(NC(=O)NCc2cccc(S(C)(=O)=O)c2)cc1OCCCC(C)C [SM0079]	–	12700 nM
COc1ccc(NC(=O)NC(c2ccccc2F)C(C)O)cc1OCCCC(C)C (centres unmarked) [SM0082]	–	14500 nM
COc1ccc(NC(=O)N[C@@H](CO)c2ccccc2)cc1OCC(F)(F)F [SM0085]	–	16100 nM
COc1ccc(NC(=O)NCc2ccc3ccccc3n2)cc1OCCCC(C)C [SM0086]	–	16600 nM
COc1ccc(NC(=O)N[C@@H](CO)c2ccccc2)cc1OCc1ccccc1 [SM0088]	–	18400 nM

Second part, led by results:

Kd (Human C5)	Structure (SMILES)	IC50 (purified human C5)
320 nM	COc1ccc(NC(=O)NC(CO)c2ccc(Cl)cc2)cc1OCCCC(C)C (centres unmarked)	3390 nM
14 nM	COc1ccc(NC(=O)NC(CO)c2ccccc2OC)cc1OCCCC(C)C (centres unmarked) [SM0003]	26.8 nM
28 nM	COc1ccc(NC(=O)NCc2ccccc2O)cc1OCCCC(C)C [SM0004]	42.6 nM
37 nM	COc1ccc(NC(=O)NCc2ccccc2O)cc1CCCCC(C)C [SM0005]	65.8 nM
90 nM	COc1ccc(NC(=O)NCc2ccccc2OC)cc1CCCCC(C)C [SM0007]	165 nM
45 nM	COc1ccc([C@H](CO)NC(=O)Nc2ccc(OC)c(OCCCC(C)C)c2)cc1 [SM0008]	176 nM
107 nM	COc1ccc(NC(=O)N[C@@H](CO)c2ccccc2)cc1CCCCC(C)C [SM0010]	226 nM
17 nM	COc1ccc(NC(=O)NCc2ccnc3[nH]ccc23)cc1OCCCC(C)C [SM0013]	327 nM
63 nM	COc1ccc(NC(=O)N[C@@H](CO)c2ccccc2)cc1C#CCCC(C)C [SM0014]	335 nM
196 nM	COc1ccc(NC(=O)NCc2ccc(O)c(O)c2)cc1OCCCC(C)C [SM0015]	342 nM
290 nM	COc1ccc(NC(=O)NCc2cccc(O)c2)cc1OCCCC(C)C [SM0016]	378 nM
111 nM	COc1ccc(NC(=O)NCc2ccc(O)cc2)cc1OCCCC(C)C [SM0017]	401 nM
114 nM	COc1ccc(NC(=O)NC(CO)c2cccc(F)c2)cc1OCCCC(C)C (centres unmarked) [SM0018]	420 nM
39 nM	COc1ccc(NC(=O)N[C@@H](CO)c2ccccc2)cc1OCCC1CCCC1 [SM0019]	450 nM
368 nM	COc1ccc(NC(=O)N(C)Cc2ccccc2)cc1OCCCC(C)C [SM0021]	533 nM
84 nM	COc1ccc(NC(=O)NCc2ccc3[nH]ccc3c2)cc1OCCCC(C)C [SM0022]	581 nM

Kd (Human C5)	Structure (SMILES)	IC50 (purified human C5)
92 nM	COc1ccc(NC(=O)N[C@@H](CO)c2ccc(F)cc2)cc1OCCCC(C)C [SM0023]	608 nM
130 nM	COc1ccc(NC(=O)NC(CO)c2ccccc2F)cc1OCCCC(C)C (centres unmarked) [SM0024]	614 nM
97 nM	COc1ccc(NC(=O)NCc2ccccc2)cc1OCCCC(C)C [SM0026]	685 nM
171 nM	COc1ccc(NC(=O)N2CCC[C@H]2c2ccccc2)cc1OCCCC(C)C [SM0027]	697 nM
239 nM	COc1ccc(NC(=O)NC(CO)c2ccccc2F)cc1CCCCC(C)C (centres unmarked) [SM0029]	901 nM
190 nM	COc1cc(CNC(=O)Nc2ccc(OC)c(OCCCC(C)C)c2)ccc1O [SM0030]	936 nM
25 nM	COc1ccc(NC(=O)NC(CO)c2ccco2)cc1OCCCC(C)C (centres unmarked) [SM0032]	1040 nM
410 nM	COc1ccc(NC(=O)N[C@@H](CO)c2ccccc2)cc1OCCCCCC(C)C [SM0033]	1100 nM
210 nM	COc1ccc(NC(=O)NCc2ccsc2)cc1OCCCC(C)C [SM0039]	1490 nM
110 nM	COc1ccc(NC(=O)NC(CO)c2ccccn2)cc1OCCCC(C)C (centres unmarked) [SM0040]	1620 nM
74 nM	COc1ccc(NC(=O)NCc2cccc3ncccc23)cc1OCCCC(C)C [SM0044]	2180 nM
102 nM	COc1ccc(NC(=O)NCc2ccccc2CO)cc1OCCCC(C)C [SM0050]	2870 nM
113 nM	COc1ccc(NC(=O)NCc2cscn2)cc1OCCCC(C)C [SM0059]	4390 nM
290 nM	COc1ccc(NC(=O)N[C@@H]2c3ccccc3C[C@@H]2O)cc1OCCCC(C)C [SM0066]	6870 nM
172 nM	COc1ccc(NC(=O)NCc2ccccc2C#N)cc1OCCCC(C)C [SM0067]	7360 nM
140 nM	COc1ccc(NC(=O)Nc2ccccc2O)cc1OCCCC(C)C [SM0069]	7720 nM
